Reference: US10221163B2 (priority 2015, dated 2019)
Where two headings read alike, the source gives them in different places.

How the values were obtained:
IMP-1 = IMP-1 (Serratia marcescens, UniProt P52699); assay: biochemical; format: biochemical; conditions: fluorescence assay, CCF2-FA substrate, 2 pM enzyme, 2 hours at 25° C.; read-out: IMP-1 IC50
Procedure, shortened: (§1)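 Fluorescence assay, CCF2-FA substrate (cephalosporin core linking 7-hydroxycoumarin to fluorescein); inhibitor + MBL + substrate, 2 h, 25° C. IC50 by 4-parameter fit, semi-log plot.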

NDM-1 = NDM-1 (Klebsiella pneumoniae, UniProt C7C422); assay: biochemical; format: biochemical; conditions: fluorescence assay, CCF2-FA substrate, 1 pM enzyme, 2 hours at 25° C.; read-out: NDM-1 IC50
Procedure, shortened: as §1

VIM-1 = VIM-1 (Pseudomonas aeruginosa (strain ATCC 15692 / DSM 22644 / CIP 104116 / JCM 14847 / LMG 12228 / 1C / PRS 101 / PAO1), UniProt A0A0F7KYQ8); assay: biochemical; conditions: CCF2-FA substrate, 30 pM enzyme, 2 hours at 25° C.
Procedure, shortened: as §1

[1] = tested on: Escherichia coli expressing NDM-1 (CLB30005, CLB30016); format: cell-based; conditions: NDM-1 strain, with imipenem 1 μg/ml, 95% inhibition of growth
Procedure, shortened: (§2)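 Clinical isolates (E. coli NDM-1, S. marcescens IMP-1, K. pneumoniae VIM-1) were diluted 1:100 from saline suspension into 1.1×CAMHB and exposed to test compound with imipenem at 1 μg/ml. Plates were incubated at 35° C for 22 hours to 24 hours, and growth was read by absorbance.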

[2] = tested on: Klebsiella pneumoniae expressing VIM-1 (IHMA599644); format: cell-based; conditions: VIM-1 strain IHMA599644, with imipenem 1 μg/ml, 95% inhibition of growth
Procedure, shortened: as §2

[3] = tested on: Serratia marcescens expressing IMP-1 (CL5741); format: cell-based; conditions: IMP-1 strain CL5741, with imipenem 1 μg/ml, 95% inhibition of growth
Procedure, shortened: as §2

[4] = tested on: Pseudomonas aeruginosa efflux+ (MB9798), IMP-1; format: cell-based; conditions: concentration restoring susceptibility to imipenem at 2 μg/mL in the presence of a class A, C, D serine β-lactamase inhibitor closely related to relebactam
Procedure, shortened: (§3)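 Microbroth MIC tests in PAO1-background strains with fixed imipenem and/or ceftazidime, usually at the CLSI breakpoint, plus fixed class A/C β-lactamase inhibitor against AmpC. MBL inhibitor titrated; concentration restoring susceptibility recorded and compared as fold difference between efflux+ MB9798 and efflux− MB9799.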

[5] = tested on: Pseudomonas aeruginosa efflux− (MB9799), IMP-1; format: cell-based; conditions: concentration restoring susceptibility to imipenem at 2 μg/mL in the presence of a class A, C, D serine β-lactamase inhibitor closely related to relebactam
Procedure, shortened: as §3

[6] = tested on: Pseudomonas aeruginosa MB9798 vs MB9799; conditions: ratio MITC95 PA_9798/MITC95 PA_9799
Procedure, shortened: as §3

[7] = fluorescence assay, read-out: VIM-1 IC50

Chain of NDM-1 (C7C422 whole entry, looked up, species assumed): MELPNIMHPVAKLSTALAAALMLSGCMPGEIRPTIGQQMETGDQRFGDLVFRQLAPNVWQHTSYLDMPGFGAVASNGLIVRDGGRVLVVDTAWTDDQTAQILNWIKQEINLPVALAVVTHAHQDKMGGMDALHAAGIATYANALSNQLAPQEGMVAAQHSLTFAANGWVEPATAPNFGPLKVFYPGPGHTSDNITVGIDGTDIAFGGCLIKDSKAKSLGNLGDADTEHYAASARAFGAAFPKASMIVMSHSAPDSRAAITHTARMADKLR
Chain of IMP-1 (P52699 whole entry, looked up, species assumed): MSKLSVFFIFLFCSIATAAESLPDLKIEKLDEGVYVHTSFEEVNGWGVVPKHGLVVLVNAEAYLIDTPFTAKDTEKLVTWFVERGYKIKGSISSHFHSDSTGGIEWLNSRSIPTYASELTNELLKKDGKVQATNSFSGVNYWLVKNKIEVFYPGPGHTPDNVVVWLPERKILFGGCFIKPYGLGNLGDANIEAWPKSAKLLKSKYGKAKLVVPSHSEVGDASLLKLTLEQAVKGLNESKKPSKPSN

Row | SMILES | IC50 (IMP-1) | IC50 (NDM-1) | IC50 (VIM-1; VIM-1 IC50, fluorescence assay) | Escherichia coli MITC95 [1] | Klebsiella pneumoniae MITC95 [2] | Serratia marcescens MITC95 [3] | P. aeruginosa expressing IMP-1, efflux + (MB9798) MITC95 [4] | P. aeruginosa expressing IMP-1, efflux − (MB9799) MITC95 [5] | Efflux ratio [6] | IC50 (VIM-1; [7])
1 | Nc1nc2c(-c3ccc(S(=O)(=O)NC[C@H]4CCCN4)c(S(N)(=O)=O)c3-c3nn[nH]n3)cccc2[nH]1 [Example 261, (R)-4-(2-amino-1H-benzo[d]imidazol-4-yl)-N1-(pyrrolidin-2-ylmethyl)-3-(2H-tetrazol-5-yl)benzene-1,2-disulfonamide] | 0.648 nM | 0.0691 nM | 0.224 nM | 0.1953 µM | 0.7813 µM | 0.7813 µM | 0.7813 µM | 0.7813 µM | 1.00 | –
2 | Nc1nc2c(-c3ccc(S(=O)(=O)NC[C@@H]4CCCN4)c(S(N)(=O)=O)c3-c3nn[nH]n3)cccc2[nH]1 [Example 262, (S)-4-(2-amino-1H-benzo[d]imidazol-4-yl)-N1-(pyrrolidin-2-ylmethyl)-3-(2H-tetrazol-5-yl)benzene-1,2-disulfonamide] | 0.925 nM | 0.0768 nM | 0.295 nM | 0.1953 µM | 0.7813 µM | 0.7813 µM | 0.7813 µM | 0.7813 µM | 1.00 | –
3 | Nc1nc2c(-c3ccc(S(=O)(=O)NC[C@@H]4CCNC4)c(S(N)(=O)=O)c3-c3nn[nH]n3)cccc2[nH]1 [Example 263, (R)-4-(2-amino-1H-benzo[d]imidazol-4-yl)-N1-(pyrrolidin-3-ylmethyl)-3-(2H-tetrazol-5-yl)benzene-1,2-disulfonamide] | 0.864 nM | 0.0461 nM | 0.205 nM | 0.3906 µM | 1.563 µM | 0.7813 µM | 0.7813 µM | 0.7813 µM | 1.00 | –
4 | CC[C@@H](CN)NS(=O)(=O)c1ccc(-c2cccc3[nH]c(N)nc23)c(-c2nn[nH]n2)c1S(N)(=O)=O [Example 264, (S)-4-(2-amino-1H-benzo[d]imidazol-4-yl)-N1-(1-aminobutan-2-yl)-3-(2H-tetrazol-5-yl)benzene-1,2-disulfonamide] | 5.93 nM | 0.2 nM | – | 0.7813 µM | 1.563 µM | 1.563 µM | 3.125 µM | 0.7813 µM | 4.00 | 0.47 nM
5 | CC[C@H](CN)NS(=O)(=O)c1ccc(-c2cccc3[nH]c(N)nc23)c(-c2nn[nH]n2)c1S(N)(=O)=O [Example 265, (R)-4-(2-amino-1H-benzo[d]imidazol-4-yl)-N1-(1-aminobutan-2-yl)-3-(2H-tetrazol-5-yl)benzene-1,2-disulfonamide] | 0.292 nM | 0.0241 nM | – | 1.563 µM | 1.563 µM | 0.7813 µM | 0.7813 µM | 0.7813 µM | 1.00 | 0.0927 nM
6 | C[C@H](CCN)NS(=O)(=O)c1ccc(-c2cccc3[nH]c(N)nc23)c(-c2nn[nH]n2)c1S(N)(=O)=O [Example 266, (R)-4-(2-amino-1H-benzo[d]imidazol-4-yl)-N1-(4-aminobutan-2-yl)-3-(2H-tetrazol-5-yl)benzene-1,2-disulfonamide] | 0.477 nM | 0.0282 nM | – | 0.7813 µM | 0.7813 µM | 0.7813 µM | 0.3906 µM | 0.7813 µM | 0.50 | 0.115 nM
